The source of these data is patent US20260083751A1, “ALLOSTERIC MODULATORS OF ANDROGEN RECEPTOR COACTIVATOR RECRUITMENT FOR CRPC THERAPY” (University of Pittsburgh – Of the Commonwealth System of …, priority 2022, published 2026).

Structures are written as SMILES. Like-named read-outs stand apart in the source and are kept apart here.

The assay concerns the target T1, AR-LBD PPI interactions with TIF2 and SRC1 coactivators (Homo sapiens, UniProt P10275).
T1 construct: AR-LBD amino acids 658-919 expressed as a fusion protein with Gal4-DBD; expressed in transfected cells; host or cells: HEK 293, transient co-transfection
T1 sequence (P10275 659-920): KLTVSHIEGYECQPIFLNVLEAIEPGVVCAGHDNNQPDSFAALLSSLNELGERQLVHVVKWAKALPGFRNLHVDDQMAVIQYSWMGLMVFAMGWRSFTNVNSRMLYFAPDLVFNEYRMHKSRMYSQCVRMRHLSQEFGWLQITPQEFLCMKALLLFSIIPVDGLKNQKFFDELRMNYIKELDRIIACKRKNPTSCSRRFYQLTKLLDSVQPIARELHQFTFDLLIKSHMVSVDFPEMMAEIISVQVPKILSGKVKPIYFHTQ
Kind of assay: TIF2 and SRC1 mammalian 2-hybrid assays, results stated jointly. Conditions: for IC50: both M2H assays. The class given is cell-based. The source says:
TIF2 and SRC1 Mammalian 2-Hybrid Assays: The 5×GAL4-TATA-luciferase reporter plasmid was a gift from Dr. Richard Maurer from the Oregon Health and Science University (Gonzalez et al., Cell 1989, 59:675-80), and constructs pGAL4-hAR-658-919 (AR-LBD amino acids 658-919 expressed as a fusion protein with Gal4-DBD) (Askew et al., J Biol Chem 2007, 282:25801-16), pVP16-SRC1 (full-length SRC1 expressed as a fusion with VP16 activation domain) (He et al., J Biol Chem 1999, 274:37219-25) and pVP16-Empty vectors were kindly provided to us by Dr. Elizabeth Wilson, from UNC Chapel Hill. pVP16-TIF2 was generated as described previously (Fancher et al., Assay Drug Dev Technol. 2019, 17:364-386). HEK 293 cells were transiently co-transfected with 5 ng of pGal4-AR-LBD, 10 ng of either pVP16-TIF2 or pVP16-SRC1, and 20 ng of the 5×Gal4-TATA-Luc reporter as described previously (Ibid.). HEK 293 cells were bulk co-transfected with the three plasmids that had been individually incubated with FuGENE® 6 transfection agent (Fugent LLC, Middleton, WI) at a 3:1 ratio for 25 min at room temperature (RT) in serum free media (SFM) and then combined with HEK 293 cells that were suspended in DMEM (Cellgro10013CV) with 2 mM L-glutamine (Invitrogen) that was supplemented with 10% fetal bovine serum, and 5,000 cells in a volume of 40 μL were seeded into the wells of white opaque 384-well assay plates (Greiner Bio-one, #781080) and cultured overnight at 37° C., 5% CO2, and 95% humidity. […] 25 μL of BrightGlo® reagent (Promega, Madison, WI) was added to the plate and the relative luminescence units (RLUs) were captured on a SpectraMax® M5e microtiter plate reader (Molecular Devices, LLC, San Jose, CA).

Setting [1] is: IC50s in TIF2 and SRC-1 M2H assays (potency range in words).
The mark [2] stands for this setting: read-out: IC50s, DHT-induced AR-LBD PPI interactions with TIF2 and SRC1 coactivators.

For `Cc1c(-c2ccccc2F)[nH]c2ccc(CNC(=O)c3ccc(CO)o3)cc12` [Compound S3-14], the IC50 is 1 to 10 µM under setting [1] and less than 10 µM under setting [2].

On to `Cc1cccc2c(-c3ccc(O)c(F)c3)c[nH]c12` [Compound S3-17], for which the IC50 is 10 to 100 µM under setting [1] and 10 to 20 µM under setting [2]. As to `COc1cc(-c2ccc(C)s2)cc2c1OCCN(c1nc(C(N)=O)cs1)C2` [Compound S1-5], the IC50 is 10 to 100 µM under setting [1] and 20 to 42 µM under setting [2]. As for `Cc1nc(N)cc(N2CCOc3c(O)cc(-c4ccccc4C)cc3C2)n1` [Compound S1-2], the IC50 under setting [1] fell in the range of 1 to 10 µM. For `Cc1nsc(NC(=O)N2CCC(Sc3ccccc3C)CC2)n1` [Compound S2-6], the “Fold M2H IC50s less than corresponding AR-TIF2 biosensor IC50s” value was roughly 10 fold. The “Fold lower IC50 for TIF2 than SRC1” value (CoA selectivity) was roughly 5 fold. Also, the IC50 under setting [1] is less than 1 µM. For `Cc1ccccc1-c1cc(O)c2c(c1)CN(c1nccs1)CCO2` [Compound S1-3], the IC50 under setting [1] was in the range of 1 to 10 µM.

In the case of `Cc1ccccc1-c1cc(O)c2c(c1)CN(c1nc(C(N)=O)cs1)CCO2` [Compound S1-1], the “Fold difference of M2H IC50s to IC50 for AR-TIF2 PPI disruption” value was roughly 5 fold. The compound also displayed an IC50 under setting [1] of 1 to 10 µM. With `Cc1c(-c2ccc(F)cc2)[nH]c2ccc(CNC(=O)c3ccc(CO)o3)cc12` [Compound S3-15], the IC50 under setting [1] lay in the range of 1 to 10 µM and the IC50 under setting [2] was less than 10 µM. For `CNC(=O)c1ccc(-c2c[nH]c3c(C)cccc23)cc1` [Compound S3-21], in that order: 10 to 100 µM and 10 to 20 µM. As to `CC(=O)NCCC(=O)NCc1ccc2[nH]c(-c3ccccc3F)c(C)c2c1` [Compound S3-13], the IC50 runs as follows: under setting [1], 10 to 100 µM; under setting [2], 10 to 20 µM. Take `Cc1c(-c2ccccc2F)[nH]c2ccc(CNC(=O)CCc3cn[nH]c3)cc12` [Compound S3-11]: the IC50 is 1 to 10 µM under setting [1] and less than 10 µM under setting [2]. For `Cc1c(-c2ccccc2F)[nH]c2ccc(CNC(=O)CCc3cnccn3)cc12` [Compound S3-12], in that order: 1 to 10 µM and less than 10 µM.
